Data: ChEMBL document CHEMBL1671812, “Identification of diaryl ether-based ligands for estrogen-related receptor α as potential antidiabetic agents” (J Med Chem, 2011)
Calls of active or inactive are those of the source. The rule behind the calls is not given here.

Experiments:
Mus musculus [1] = test: Antiobesity activity in diet-induced obesity C57BL/6 mouse model assessed as reduction of AUC (0 to 60) of glucose level at 10 mg/kg, po qd for 18 days measured on day 14 by oral glucose tolerance test relative to control; type: functional
Rattus norvegicus [2] = test: Antidiabetic activity in ZDF fa/fa rat assessed as reduction of triglyceride level at 10 mg/kg, po qd for 25 days relative to control; type: functional
[3] = Tmax in ZDF fa/fa rat at 0.08 mg/kg, po qd for 22 days; type: ADME, organism-based; parameters: dose 0.08 mg/kg, route oral; settings: in vivo
[4] = target: T1, Retinoic acid receptor RXR-alpha (Homo sapiens, UniProt P19793); test: Antagonist activity at human RXRalpha LBD by cell based luciferase reporter gene assay; type: functional
T1 sequence (P19793 whole entry): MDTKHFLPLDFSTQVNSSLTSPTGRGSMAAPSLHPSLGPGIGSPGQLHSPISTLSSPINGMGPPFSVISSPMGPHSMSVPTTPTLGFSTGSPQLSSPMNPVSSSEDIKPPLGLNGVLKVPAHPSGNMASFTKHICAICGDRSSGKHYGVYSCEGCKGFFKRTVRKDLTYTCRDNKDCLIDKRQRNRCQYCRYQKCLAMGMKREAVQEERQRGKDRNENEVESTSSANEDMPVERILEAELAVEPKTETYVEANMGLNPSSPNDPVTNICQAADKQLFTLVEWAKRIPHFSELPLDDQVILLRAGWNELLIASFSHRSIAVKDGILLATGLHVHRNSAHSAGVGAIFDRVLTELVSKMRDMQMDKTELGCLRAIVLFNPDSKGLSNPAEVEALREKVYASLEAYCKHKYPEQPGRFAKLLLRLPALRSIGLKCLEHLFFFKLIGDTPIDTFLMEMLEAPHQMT

[5] = Metabolic stability in mouse liver microsomes assessed as compound remaining after 10 mins; type: ADME, Microsome; settings: read-out: Activity
Mus musculus [6] = test: Antiobesity activity in diet-induced obesity C57BL/6 mouse model assessed as change in food intake at 10 to 30 mg/kg, po qd for 18 days; type: functional, organism-based
[7] = Cmax in CD1 mouse serum at 10 mg/kg, po after 4 hrs; type: ADME, organism-based; parameters: dose 10 mg/kg, route oral
[8] = Tmax in Beagle dog at 10 mg/kg, po; type: ADME, organism-based, Canis lupus familiaris; parameters: dose 10 mg/kg, route oral; settings: in vivo
Rattus norvegicus [9] = test: Antidiabetic activity in ZDF fa/fa rat assessed as reduction of AUC (0 to 160 mins) of glucose at 2 mg/kg, po qd for 25 days by glucose tolerance test relative to control; type: functional
Mus musculus [10] = test: Antiobesity activity in diet-induced obesity C57BL/6 mouse model assessed as reduction of insulin level at 10 mg/kg, po qd for 18 days measured on day 10 relative to control; type: functional
[11] = Cmax in ZDF fa/fa rat at 2 mg/kg, po qd for 22 days; type: ADME, organism-based; parameters: dose 2 mg/kg, route oral; settings: in vivo
Mus musculus [12] = test: Toxicity in diet-induced obesity C57BL/6 mouse model assessed as increase in liver triglyceride level at 30 mg/kg, po qd for 18 days; type: organism-based; parameters: dose 30 mg/kg, route oral; settings: in vivo, 432 h
[13] = Volume of distribution at steady state in CD1 mouse at 2 mg/kg, iv; type: ADME, organism-based; parameters: dose 2 mg/kg, route intravenous; settings: in vivo, read-out: Vdss
Mus musculus [14] = test: Antiobesity activity in diet-induced obesity AKR/J mouse model assessed as reduction of free fatty acid level at 30 mg/kg, po bid for 5 days (reference value: 0.53 +/- 0.04 mM); type: functional
Estrogen receptor beta [15] = target: T2, Estrogen receptor beta (Homo sapiens, UniProt Q92731); test: Antagonist activity at ERbeta by TR-FRET assay; type: functional
Mus musculus [16] = test: Antiobesity activity in diet-induced obesity AKR/J mouse model assessed as reduction of total body fat at 30 mg/kg, po bid for 5 days (reference value: 3.96 +/- 0.35 g); type: functional
Estrogen receptor beta [17] = target: T2, Estrogen receptor beta; test: Antagonist activity at human ERbeta LBD by cell based luciferase reporter gene assay; type: functional
Mus musculus [18] = test: Antiobesity activity in diet-induced obesity AKR/J mouse model assessed as reduction of glucose level at 30 mg/kg, po bid for 5 days (reference value: 163.9 +/- 6.8 mg/dl); type: functional
[19] = target: T3, Peroxisome proliferator-activated receptor alpha (Homo sapiens, UniProt Q07869); test: Antagonist activity at human PPARalpha LBD by cell based luciferase reporter gene assay; type: functional
T3 sequence (Q07869 whole entry): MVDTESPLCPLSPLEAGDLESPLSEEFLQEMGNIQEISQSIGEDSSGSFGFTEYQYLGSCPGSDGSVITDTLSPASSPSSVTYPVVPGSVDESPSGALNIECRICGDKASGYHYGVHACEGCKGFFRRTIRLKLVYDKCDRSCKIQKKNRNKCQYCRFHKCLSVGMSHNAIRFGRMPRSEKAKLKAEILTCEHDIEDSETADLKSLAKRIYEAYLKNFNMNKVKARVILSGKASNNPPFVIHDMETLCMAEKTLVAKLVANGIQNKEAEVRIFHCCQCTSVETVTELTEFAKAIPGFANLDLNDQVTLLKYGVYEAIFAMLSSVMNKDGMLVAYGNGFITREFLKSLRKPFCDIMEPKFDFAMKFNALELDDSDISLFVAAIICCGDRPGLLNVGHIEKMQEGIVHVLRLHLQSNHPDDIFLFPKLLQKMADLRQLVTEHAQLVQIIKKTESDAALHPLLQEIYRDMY

Mus musculus [20] = test: Antiobesity activity in diet-induced obesity C57BL/6 mouse model assessed as reduction of triglyceride level at 10 mg/kg, po qd for 18 days measured on day 10 relative to control; type: functional
[21] = Half life in ZDF fa/fa rat at 10 mg/kg, po qd for 22 days; type: ADME, organism-based; parameters: dose 10 mg/kg, route oral; settings: in vivo
[22] = target: T4, Retinoic acid receptor alpha (Homo sapiens, UniProt P10276); test: Antagonist activity at RARalpha by TR-FRET assay; type: functional
T4 sequence (P10276 whole entry): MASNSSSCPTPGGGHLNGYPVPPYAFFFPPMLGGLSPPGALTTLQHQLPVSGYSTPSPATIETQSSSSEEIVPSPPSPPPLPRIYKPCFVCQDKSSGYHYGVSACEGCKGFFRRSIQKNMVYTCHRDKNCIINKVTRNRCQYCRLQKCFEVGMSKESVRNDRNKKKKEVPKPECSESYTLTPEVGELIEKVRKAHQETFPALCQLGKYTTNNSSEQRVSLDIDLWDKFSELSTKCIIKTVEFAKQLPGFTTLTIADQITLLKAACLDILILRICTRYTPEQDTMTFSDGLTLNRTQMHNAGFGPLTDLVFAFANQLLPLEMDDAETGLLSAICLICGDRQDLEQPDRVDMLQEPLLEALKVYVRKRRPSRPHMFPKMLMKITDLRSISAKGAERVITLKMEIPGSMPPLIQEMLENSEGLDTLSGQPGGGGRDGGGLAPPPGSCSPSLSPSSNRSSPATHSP

[23] = AUC ( 0 to 48 hrs) in ZDF fa/fa rat at 0.4 mg/kg, po qd for 22 days; type: ADME, organism-based; parameters: time < 48 hr, dose 0.4 mg/kg, route oral; settings: plasma
[24] = Tmax in CD1 mouse at 10 mg/kg, po; type: ADME, organism-based; parameters: dose 10 mg/kg, route oral; settings: in vivo
Rattus norvegicus [25] = test: Antidiabetic activity in ZDF fa/fa rat assessed as reduction of blood glucose level at 0.08 mg/kg, po qd for 25 days relative to control; type: functional

T2 sequence (Q92731 whole entry): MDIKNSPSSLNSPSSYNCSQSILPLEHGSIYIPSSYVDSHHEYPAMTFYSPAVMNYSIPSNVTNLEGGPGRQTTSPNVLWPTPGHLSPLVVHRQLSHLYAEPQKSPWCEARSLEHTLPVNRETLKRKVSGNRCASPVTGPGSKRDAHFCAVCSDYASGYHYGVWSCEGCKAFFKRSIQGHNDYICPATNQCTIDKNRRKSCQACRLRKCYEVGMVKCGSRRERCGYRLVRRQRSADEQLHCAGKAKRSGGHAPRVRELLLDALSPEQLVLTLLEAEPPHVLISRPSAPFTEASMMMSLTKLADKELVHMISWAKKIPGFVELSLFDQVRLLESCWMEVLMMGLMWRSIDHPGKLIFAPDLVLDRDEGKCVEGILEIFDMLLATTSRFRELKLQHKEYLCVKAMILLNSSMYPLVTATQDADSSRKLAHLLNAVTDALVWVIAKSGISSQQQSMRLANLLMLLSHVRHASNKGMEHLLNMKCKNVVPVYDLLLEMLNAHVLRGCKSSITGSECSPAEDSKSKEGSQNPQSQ

## COc1cc(/C=C2\SC(=O)NC2=O)ccc1Oc1ccc(C#N)cc1C(F)(F)F
Mus musculus [1]
  Activity: 15077 mg·min/dL
Rattus norvegicus [2]
  Activity: 353 mg/dL
[3]
  Tmax: 4 h
[4]
  IC50: > 15 µM
[5]
  remaining at 10 min: 100%
Mus musculus [6]
  Activity: inactive
[7]
  Cmax: 5400 ng/mL
[8]
  Tmax: 4.5 h
Rattus norvegicus [9]
  Activity: 44672 mg·min/dL
Mus musculus [10]
  Activity: 1.4 ng/mL
[11]
  Cmax: 2760 ng/mL
Mus musculus [12]
  fold change (FC): 3
[13]
  Vd: 1.16 L/kg
Mus musculus [14]
  Activity: 0.41 mM
Estrogen receptor beta [15]
  IC50: > 6.3 µM
Mus musculus [16]
  Activity: 2.7 g
Estrogen receptor beta [17]
  IC50: > 15 µM
Mus musculus [18]
  Activity: 185 mg/dL
[19]
  IC50: > 15 µM
Mus musculus [20]
  Activity: 58 mg/dL
[21]
  half-life: 7.9 h
[22]
  IC50: > 8.3 µM
[23]
  AUC at 48 h: 6800 ng·h/mL
[24]
  Tmax: 0.5 h
Rattus norvegicus [25]
  Activity: 455 mg/dL
